The values that follow are results of earlier work, collected in patent US20030176652A1, “Human and mouse beta-defensins, antimicrobial peptides” (priority 2001, published 2003).

Where “and” joins values, the source holds several entries; their conditions need not be identical. Equal values may be shown once. Read-outs that look alike come from different tables or passages of the source. Where no end group is shown, it is not given here.

Data set [1] deals with Staphylococcus haemolyticus.
In a further data set the test system is Streptococcus agalactiae. On the set-up: MIC50 / MIC90: unit not given beside the values.
The next data set has as its system Bacillus spp. On the set-up: MIC90: unit not given beside the values.
For the next data set, the system named is Staphylococcus hominis. On the set-up: unit not given beside the values.
Data set [2] deals with Staphylococcus aureus. On the set-up: MIC50 / MIC90: unit not given beside the values.
The next data set relates to Streptococcus pyogenes. On the set-up: unit not given beside the values.
In a further data set the test system is Haemophilus influenzae. On the set-up: MIC50 / MIC90: unit not given beside the values.
The test system of a further data set is Neisseria gonorrhoeae. On the set-up: MIC90: unit not given beside the values.
Data set [3] concerns Staphylococcus epidermidis. On the set-up: unit not given beside the values.
Another data set deals with Campylobacter jejuni. On the set-up: MIC90: unit not given beside the values.
In data set [4] the test system is Bordetella bronchiseptica. On the set-up: MIC50 / MIC90: unit not given beside the values.
A further data set has as its system Neisseria meningitidis. On the set-up: MIC50 / MIC90: unit not given beside the values.
The subject of data set [5] is Branhamella (Moraxella) catarrhalis. Particulars: Branhamella (Moraxella) catarrhalis (β-lactamase producer).
For another data set, the system named is Streptococcus spp. On the set-up: unit not given beside the values.
For the next data set, the system named is Listeria monocytogenes. On the set-up: unit not given beside the values.
The subject of data set [6] is Haemophilus parainfluenzae. On the set-up: MIC50 / MIC90: unit not given beside the values.
The next data set concerns Nocardia asteroides. On the set-up: MIC50 / MIC90: unit not given beside the values.
Another data set concerns Haemophilus ducreyi. On the set-up: unit not given beside the values.
A further data set has as its system Bacteroides fragilis. On the set-up: MIC50 / MIC90: unit not given beside the values.
The next data set has as its system Campylobacter pylori. On the set-up: MIC50: unit not given beside the values.
The subject of the next data set is Enterococcus spp. On the set-up: MIC50 / MIC90: unit not given beside the values.
In the next data set the test system is Mycoplasma hominis. On the set-up: MIC50 / MIC90: unit not given beside the values.
Data set [7] deals with cells expressing the human CCR6.
For data set [8], the system named is Staphylococcus aureus. Particulars: physiological salt concentrations.
[9] abbreviates: Staphylococcus aureus (methicillin resistant).
Setting [10] is: Staphylococcus aureus (penicillin resistant).
The mark [11] stands for this setting: Staphylococcus aureus (penicillin susceptible).
Setting [12] is: Haemophilus influenzae (non β-lactamase producer).
Setting [13] is: Haemophilus influenzae (penicillin resistant).
Where [14] appears, read: Haemophilus influenzae (penicillin susceptible).
[15] abbreviates: Haemophilus influenzae (β-lactamase producer).
Where [16] appears, read: Neisseria gonorrhoeae (non β-lactamase producer).

On to `CC[C@H]1OC(=O)[C@H](C)[C@@H](O[C@H]2C[C@@](C)(OC)[C@@H](O)[C@H](C)O2)[C@H](C)[C@@H](O[C@@H]2O[C@H](C)C[C@H](N(C)C)[C@H]2O)[C@](C)(O)C[C@@H](C)C(=O)[C@H](C)[C@@H](O)[C@]1(C)O` [ERYTHROMYCIN, erythromycin], for which the MIC50 was 0.03 with Borrelia burgdorferi; 64 in [1]; 0.03 with Streptococcus agalactiae; 64 in the data set with Staphylococcus hominis; 0.5 with Staphylococcus aureus [2] (Staphylococcus aureus); 64 and 32 with Staphylococcus aureus [2] (setting [9]). Further, the MIC50 in the data set with Staphylococcus aureus [2] (Staphylococcus aureus (methicillin susceptible)) was 0.5; in the data set with Staphylococcus aureus [2] (setting [11]) it was 0.5; in the data set on Streptococcus pyogenes, 0.06 and 0.03; in the data set on Haemophilus influenzae (Haemophilus influenzae) it was 2 and 1; in the data set on Haemophilus influenzae (setting [12]), 2 and 4; with Haemophilus influenzae (setting [13]), 8. Also, the MIC50 with Haemophilus influenzae (setting [14]) is 8; in the data set with Haemophilus influenzae (setting [15]), 4 and 2; with Enterococcus faecium it was 1; in data set [3] it was 64; in [4] it was 8; with Neisseria meningitidis, 1. The MIC50 is listed as 0.03 with Streptococcus spp.; 0.5 in the data set on Listeria monocytogenes; 2 in data set [6]; 8 in the data set on Nocardia asteroides; 0.004 in the data set on Haemophilus ducreyi; 1 with Bacteroides fragilis. In addition, the MIC50 is 0.5 with Campylobacter pylori; 2 with Corynebacterium JK; 0.06 and 0.03 in the data set on Streptococcus pneumoniae; 2 in the data set with Enterococcus spp.. The MIC90 is 0.06 with Borrelia burgdorferi; 64 in data set [1]; 0.03 in the data set with Streptococcus agalactiae; 2 with Bacillus spp.; 64 in the data set with Staphylococcus hominis; 64 and 32 with Staphylococcus aureus [2] (setting [9]). Moreover, the MIC90 was 32 in the data set on Staphylococcus aureus [2] (setting [10]); 0.5 in the data set on Staphylococcus aureus [2] (setting [11]); 2 and 4 with Haemophilus influenzae (Haemophilus influenzae); 4 and 8 in the data set on Haemophilus influenzae (setting [12]); 16 with Haemophilus influenzae (setting [13]); 16 with Haemophilus influenzae (setting [14]). Moreover, the MIC90 in the data set on Haemophilus influenzae (setting [15]) was 8 and 4; in the data set on Neisseria gonorrhoeae (Neisseria gonorrhoeae), 1; with Neisseria gonorrhoeae (setting [16]) it was 2 and 1; in the data set on Neisseria gonorrhoeae (Neisseria gonorrhoeae (β-lactamase producer)), 2 and 4; in the data set with Enterococcus faecium, 64; in data set [3] it was 64. Further, the MIC90 was 4 and 2 in the data set with Campylobacter jejuni; 32 in data set [4]; 8 with Neisseria meningitidis; 4 in [6]; 8 with Nocardia asteroides; 0.06 with Haemophilus ducreyi. Further, the MIC90 is 8 with Bacteroides fragilis; 64 with Corynebacterium JK; 0.03 and 0.06 with Streptococcus pneumoniae; 32 in the data set on Enterococcus spp.; 32 in the data set on Ureaplasma urealyticum. Besides, the Range is 0.03-0.25 and 0.015-0.06 in the data set with Streptococcus agalactiae; 0.03-2 in the data set with Bacillus spp.; 0.25-32 in the data set on Staphylococcus aureus [2] (setting [10]); 0.06-32 in the data set on Staphylococcus aureus [2] (setting [11]); 0.5-8 and 0.25-16 in the data set on Haemophilus influenzae (Haemophilus influenzae); 0.06-8 with Haemophilus influenzae (setting [12]). Also, the Range was 8-16 in the data set on Haemophilus influenzae (setting [13]); 0.25-16 with Haemophilus influenzae (setting [14]); 0.0075-8 in the data set on Neisseria gonorrhoeae (Neisseria gonorrhoeae); 0.015-4 and 0.03-2 in the data set with Neisseria gonorrhoeae (setting [16]); 0.06-64 with Enterococcus faecium; 0.5-8 in the data set with Campylobacter jejuni. Also, the Range in data set [4] is 4-32; in the data set with Neisseria meningitidis, 0.5-8; in data set [5], 0.06-1 and 0.03-0.25 and 0.06-8; in data set [6], 0.5-8; in the data set on Nocardia asteroides, 0.25-8; in the data set on Bacteroides fragilis it was 0.25-16. For the same compound, the Range was 0.25-16 with Campylobacter pylori; 0.03-0.25 and 0.015-0.06 and 0.015-0.25 in the data set with Streptococcus pneumoniae; 0.06-32 in the data set with Enterococcus spp..

Take `CCC[C@@H]1C[C@@H](C(=O)N[C@@H]([C@H]2O[C@H](SC)[C@H](O)[C@@H](O)[C@H]2O)[C@@H](C)O)N(C)C1` [LINCOMYCIN, lincomycin]: the MIC50 with Staphylococcus aureus [2] (Staphylococcus aureus) is 1; in the data set with Mycoplasma pneumoniae, 8; with Mycoplasma hominis it was 2; with Ureaplasma urealyticum, 128. For the same compound, the MIC90 was 1 in the data set with Staphylococcus aureus [2] (Staphylococcus aureus), 32 in the data set with Mycoplasma pneumoniae, 4 in the data set with Mycoplasma hominis and 128 in the data set with Ureaplasma urealyticum. In addition, the Range in the data set with Staphylococcus aureus [2] (Staphylococcus aureus) is listed as 0.5-512; in the data set on Mycoplasma pneumoniae, 2-32; with Mycoplasma hominis, 0.5-16; in the data set with Ureaplasma urealyticum it was 64-128.

Regarding “CCL20: the only reported chemokine ligand for CCR6”, in [7] (greater than that of HBD-1 and HBD-2), the “chemokine activity relative to HBD-1 and HBD-2” value is “approximately 10 fold”.

With “DEFB3: protein encoded by the known human β-defensin gene DEFB3 (GIINTLQKYYCRVRGGRCAVLSCLPKEEQIGKCSTRGRKCCRRKK; not fully specified (bridges); cysteine pairing not given here; UniProt P81534 23-67, looked up)”, the “salt sensitivity of bactericidal activity against Staphylococcus aureus” value in the data set with Staphylococcus aureus [8] is reported as “not salt-sensitive”.

Take “HBD-1: known human β-defensin peptide, product of DEFB1 (DHYNCVSSGGQCLYSACPIFTKIQGTCYRGKAKCCK; not fully specified (bridges); cysteine pairing not given here; UniProt P60022 33-68, looked up)”: the “chemotaxis of cells expressing the human CCR6” value in [7] is “selectively chemotactic”.

With “HBD-2: HBD-2 protein encoded by the DEFB2 gene (GIGDPVTCLKSGAICHPVFCPRRYKQIGTCGLPGTKCCKKP; UniProt O15263 24-64, looked up)”, the “chemotaxis of cells expressing the human CCR6” value in [7] is “selectively chemotactic”. Besides, the “histamine release from mast cells” value with mast cells is given as “stimulates mast cells to release histamine”.
